# Assay results taken from ChEMBL document CHEMBL3046322, “Insect growth regulatory effects by diterpenes from Calceolaria talcana Grau & Ehrhart (Calceolariaceae: Scrophulariaceae) against Spodoptera frugiperda and Drosophila melanogaster” (2013).
# Activity calls are given as the source filed them. The rule behind the calls is not given here.
# What was measured:
# [1] = test system: Spodoptera frugiperda; experiment: Growth inhibitory activity against first-instar larval stage of Spodoptera frugiperda (fall armyworm) fed with compound incorporated diet assessed as length gained at 5 ug/ml after 7 days (reference value: 100%); type: functional; parameters: scale not given: the % may be the effect or the level left
# [2] = test system: Spodoptera frugiperda; experiment: Growth inhibitory activity against first-instar larval stage of Spodoptera frugiperda (fall armyworm) fed with compound incorporated diet assessed as weight gained at 50 ug/ml after 7 days (reference value: 100%); type: functional; parameters: scale not given: the % may be the effect or the level left
# [3] = test system: Spodoptera frugiperda; experiment: Growth inhibitory activity against first-instar larval stage of Spodoptera frugiperda (fall armyworm) fed with compound incorporated diet assessed as weight gained at 35 ug/ml after 7 days (reference value: 100%); type: functional; parameters: scale not given: the % may be the effect or the level left
# [4] = test system: Spodoptera frugiperda; experiment: Growth inhibitory activity against first-instar larval stage of Spodoptera frugiperda (fall armyworm) fed with compound incorporated diet assessed as weight gained at 10 ug/ml after 7 days (reference value: 100%); type: functional; parameters: scale not given: the % may be the effect or the level left
# [5] = test system: Spodoptera frugiperda; experiment: Growth inhibitory activity against first-instar larval stage of Spodoptera frugiperda (fall armyworm) fed with compound incorporated diet assessed as weight gained at 5 ug/ml after 7 days (reference value: 100%); type: functional; parameters: scale not given: the % may be the effect or the level left
# [6] = test system: Spodoptera frugiperda; experiment: Growth inhibitory activity against Spodoptera frugiperda (fall armyworm) larvae fed with compound containing diet assessed as relative growth index at 10 ug/ml (reference value: 1.0 no_unit); type: functional
# [7] = test system: Spodoptera frugiperda; experiment: Growth inhibitory activity against Spodoptera frugiperda (fall armyworm) larvae fed with compound containing diet assessed as growth index at 35 ug/ml (reference value: 0.95 +/-0.02 no_unit); type: functional
# [8] = test system: Spodoptera frugiperda; experiment: Growth inhibitory activity against Spodoptera frugiperda (fall armyworm) larvae fed with compound containing diet assessed as relative growth index at 35 ug/ml (reference value: 1.0 no_unit); type: functional
# [9] = test system: Spodoptera frugiperda; experiment: Growth inhibitory activity against Spodoptera frugiperda (fall armyworm) larvae fed with compound containing diet assessed as relative growth index at 20 ug/ml (reference value: 1.0 no_unit); type: functional
# [10] = test system: Spodoptera frugiperda; experiment: Growth inhibitory activity against Spodoptera frugiperda (fall armyworm) larvae fed with compound containing diet assessed as growth index at 20 ug/ml (reference value: 0.95 +/-0.02 no_unit); type: functional
# [11] = test system: Spodoptera frugiperda; experiment: Growth inhibitory activity against Spodoptera frugiperda (fall armyworm) larvae fed with compound containing diet assessed as growth index at 5 ug/ml (reference value: 0.95 +/-0.02 no_unit); type: functional
# [12] = test system: Spodoptera frugiperda; experiment: Growth inhibitory activity against Spodoptera frugiperda (fall armyworm) larvae fed with compound containing diet assessed as reduction in adult emergence at 20 ug/ml; type: functional
# [13] = test system: Spodoptera frugiperda; experiment: Growth inhibitory activity against Spodoptera frugiperda (fall armyworm) larvae fed with compound containing diet assessed as reduction in survival pupation at >10 ug/ml; type: functional
# [14] = test system: Spodoptera frugiperda; experiment: Growth inhibitory activity against po dosed fourth-instar larvae of Spodoptera frugiperda (fall armyworm) assessed as proportion of prothetely appearance of precocious pupal structure in larvae after 48 to 72 hr; type: functional; parameters: scale not given: the % may be the effect or the level left
# [15] = test system: Spodoptera frugiperda; experiment: Growth inhibitory activity against po dosed Spodoptera frugiperda (fall armyworm) larvae assessed as promotion of apolysis to fifth instar with ecdysis inhibition at 5 to 20 ug/ml; type: functional, organism-based
# [16] = test system: Drosophila melanogaster; experiment: Insecticidal activity against Drosophila melanogaster larvae fed with compound incorporated diet assessed as mortality at 20 ug/ml after 72 hr by not choice test (reference value: 0%); type: functional
# [17] = test system: Spodoptera frugiperda; experiment: Acute toxicity against last larval stage of Spodoptera frugiperda (fall armyworm) assessed as mortality applied topically onto abdomen measured after 7 days; type: functional; settings: topical, 168 h
# [18] = test system: Spodoptera frugiperda; experiment: Acute toxicity against last larval stage of Spodoptera frugiperda (fall armyworm) assessed as survival at 10 ug/ml applied topically onto abdomen measured after 24 hr (reference value: 98.8 +/-3.5%); type: functional
# [19] = test system: Spodoptera frugiperda; experiment: Acute toxicity against last larval stage of Spodoptera frugiperda (fall armyworm) assessed as survival at 5 ug/ml applied topically onto abdomen measured after 24 hr (reference value: 98.8 +/-3.5%); type: functional
# [20] = test system: Spodoptera frugiperda; experiment: Insecticidal activity against first-instar larval stage of Spodoptera frugiperda (fall armyworm) fed with compound incorporated diet assessed as mortality at 40 ug/ml after 7 days; type: functional, organism-based
# [21] = test system: Spodoptera frugiperda; experiment: Insecticidal activity against first-instar larval stage of Spodoptera frugiperda (fall armyworm) fed with compound incorporated diet assessed as mortality at 50 ug/ml after 21 days (reference value: 5.6%); type: functional; settings: 504 h
# [22] = test system: Spodoptera frugiperda; experiment: Growth inhibitory activity against first-instar larval stage of Spodoptera frugiperda (fall armyworm) fed with compound incorporated diet assessed as length gained at 10 ug/ml after 21 days (reference value: 100%); type: functional
# [23] = test system: Spodoptera frugiperda; experiment: Growth inhibitory activity against first-instar larval stage of Spodoptera frugiperda (fall armyworm) fed with compound incorporated diet assessed as length gained at 5 ug/ml after 21 days (reference value: 100%); type: functional
# [24] = test system: Spodoptera frugiperda; experiment: Growth inhibitory activity against first-instar larval stage of Spodoptera frugiperda (fall armyworm) fed with compound incorporated diet assessed as weight gained at 50 ug/ml after 21 days (reference value: 100%); type: functional
# [25] = test system: Spodoptera frugiperda; experiment: Growth inhibitory activity against first-instar larval stage of Spodoptera frugiperda (fall armyworm) fed with compound incorporated diet assessed as weight gained at 35 ug/ml after 21 days (reference value: 100%); type: functional
# [26] = test system: Spodoptera frugiperda; experiment: Growth inhibitory activity against first-instar larval stage of Spodoptera frugiperda (fall armyworm) fed with compound incorporated diet assessed as weight gained at 20 ug/ml after 21 days (reference value: 100%); type: functional
# [27] = test system: Spodoptera frugiperda; experiment: Growth inhibitory activity against first-instar larval stage of Spodoptera frugiperda (fall armyworm) fed with compound incorporated diet assessed as weight gained at 10 ug/ml after 21 days (reference value: 100%); type: functional
# [28] = test system: Spodoptera frugiperda; experiment: Growth inhibitory activity against first-instar larval stage of Spodoptera frugiperda (fall armyworm) fed with compound incorporated diet assessed as weight gained at 5 ug/ml after 21 days (reference value: 100%); type: functional
# [29] = test system: Spodoptera frugiperda; experiment: Insecticidal activity against first-instar larval stage of Spodoptera frugiperda (fall armyworm) fed with compound incorporated diet assessed as mortality at 50 ug/ml after 7 days (reference value: 5.6%); type: functional; settings: 168 h
# [30] = test system: Spodoptera frugiperda; experiment: Insecticidal activity against first-instar larval stage of Spodoptera frugiperda (fall armyworm) fed with compound incorporated diet assessed as mortality at 35 ug/ml after 7 days (reference value: 5.6%); type: functional; settings: 168 h
# [31] = test system: Spodoptera frugiperda; experiment: Insecticidal activity against first-instar larval stage of Spodoptera frugiperda (fall armyworm) fed with compound incorporated diet assessed as mortality at 20 ug/ml after 21 days (reference value: 5.6%); type: functional; settings: 504 h
# [32] = test system: Spodoptera frugiperda; experiment: Insecticidal activity against first-instar larval stage of Spodoptera frugiperda (fall armyworm) fed with compound incorporated diet assessed as mortality at 10 ug/ml after 21 days (reference value: 5.6%); type: functional; settings: 504 h
# [33] = test system: Spodoptera frugiperda; experiment: Insecticidal activity against first-instar larval stage of Spodoptera frugiperda (fall armyworm) fed with compound incorporated diet assessed as mortality at 5 ug/ml after 21 days (reference value: 5.6%); type: functional; settings: 504 h
# [34] = test system: Spodoptera frugiperda; experiment: Growth inhibitory activity against first-instar larval stage of Spodoptera frugiperda (fall armyworm) fed with compound incorporated diet assessed as length gained at 50 ug/ml after 21 days (reference value: 100%); type: functional
# [35] = test system: Spodoptera frugiperda; experiment: Growth inhibitory activity against first-instar larval stage of Spodoptera frugiperda (fall armyworm) fed with compound incorporated diet assessed as length gained at 35 ug/ml after 21 days (reference value: 100%); type: functional
# [36] = test system: Spodoptera frugiperda; experiment: Growth inhibitory activity against first-instar larval stage of Spodoptera frugiperda (fall armyworm) fed with compound incorporated diet assessed as length gained at 20 ug/ml after 7 days (reference value: 100%); type: functional
structure (smiles),measurement,setting,value
C=C[C@]1(C)CC[C@H]2C(=CC[C@@H]3[C@](C)(CO)CC[C@@H]4C[C@@]432)C1,Activity,[1],68.7%
same,Activity,[2],0%
same,Activity,[3],1.4%
same,Activity,[4],17.1%
same,Activity,[5],25.1%
same,Growth_index,[6],0.25
same,Growth_index,[7],0.09
same,Growth_index,[8],0.1
same,Growth_index,[9],0.19
same,Growth_index,[10],0.19
same,Growth_index,[11],0.41
same,inhibition at 20 µg/mL,[12],0%
same,inhibition (INH),[13],0%
same,Activity,[14],30%
same,Activity,[15],Active
same,mortality at 20 µg/mL,[16],98%
same,LD50,[17],3.02 µg/mL
same,Activity,[18],3.5%
same,Activity,[19],27%
same,mortality,[20],Active
same,mortality at 50 µg/mL,[21],100%
same,Length gained relative to control,[22],30.8%
same,Length gained (% of control),[23],55%
same,Weight gain relative to control,[24],0%
same,Weight gain relative to control,[25],0%
same,Weight gain relative to control,[26],0%
same,Weight gain (% of control),[27],10.6%
same,Larval weight gain relative to control,[28],20.1%
same,mortality at 50 µg/mL,[29],100%
same,mortality at 35 µg/mL,[30],98.4%
same,mortality at 20 µg/mL,[31],100%
same,mortality at 10 µg/mL,[32],68.6%
same,mortality at 5 µg/mL,[33],55.8%
same,Length gained (% of control),[34],0%
same,Length gained relative to control,[35],0%
same,Length gained relative to control,[36],18.3%
